Source: patent US20230132973A1, “DIHYDRO-SPIRO[INDOLINE-3:1'-iSOQUINOLIN]-2-ONES AS ANTIMALARIAL AGENTS” (The University of Buea, priority 2020, published 2023)
“Also recorded” adds a separate entry of the source. Read-outs that look alike come from different tables or passages of the source.

Key:
[1] = test system: CQ-sensitive 3D7 strain of P. falciparum; assay: SYBR green I-based parasite growth inhibition assay, 3D7 strain; assay type: cell-based, Plasmodium falciparum; conditions: for EC50: 72 h, read-out: EC50
[2] = test system: multidrug resistant strain Dd2; assay: SYBR green I-based parasite growth inhibition assay, Dd2 strain; assay type: cell-based, Plasmodium falciparum
[3] = test system: Normal African Green Monkey Kidney Epithelial (Vero) cells; assay: MTT cell proliferation (cytotoxicity) assay, Vero cells; assay type: cell-based
Method: (§1) By principle, the soluble MTT is reduced to an insoluble colored formazan product by mitochondrial succinate dehydrogenase in viable cells. Normal African Green Monkey Kidney Epithelial (Vero) and the Human Liposarcoma (SW872) cells were maintained in MEM supplemented with 10% FBS, 1% Glutamine and 1% penicillin-streptomycin. Confluent cells were trypsinized and seeded at a density of 2500 cells/well (total volume 90 μL) in 96-well plates and incubated for 24 h prior to drug treatment. Two-fold serial dilutions of the compounds (100-0.0488 μM) were added to the plates and incubated under humidified conditions at 37° C. for 48 h. Absorbance of the formed formazan product was measured at 550 nm wavelength using a SUNRISE microtiter plate reader. […] Selectivity indices (SI=CC50/EC50) were calculated as an indication of toxicity relative to the observed antiplasmodial activity.

[4] = test system: Human Liposarcoma (SW872) cells; assay: MTT cell proliferation (cytotoxicity) assay, SW872 cells; assay type: cell-based
Method: as §1

[5] = test system: hemoglobin metabolism in P. falciparum ring and trophozoite stage parasites; assay: Effect on hemoglobin degradation (intraparasitic hemoglobin content); assay type: cell-based, Plasmodium falciparum; conditions: 10 μM, 24 h, relative to E64-treated cultures; listed as (±)-moxiquindole
Method: Owing to the fact that the DSIIQs are constructed from the THIQ pharmacophore of naphthylisoquinolines, which appear to target proteases involved in hemoglobin degradation, we assessed the effect of this DSIIQ on hemoglobin metabolism. Briefly, tightly synchronized ring and trophozoite stage parasites were treated with test compounds for 24 h followed by parasite isolation and quantification of the intraparasitic hemoglobin contents.
To investigate drug effects on hemoglobin degradation, early ring and mid-trophozoite stage parasites (1.5% hematocrit, 5% parasitemia) were co-cultured with the test compounds or experimental controls (0.1% DMSO, chloroquine, artemisinin NITD609 and E64) at a final concentration of 10 μM. The cultures were incubated at 37° C. and 5% CO2 for 24 h. Following incubation, inhibitors were removed by centrifugation at 1800 rpm for 5 min. The pellets were washed in an equal volume of 1×PBS and re-suspended in same volume of 0.1% saponin (in 1×PBS) for 3 min. Isolated parasites were pelleted at 2500 rpm for 5 min and washed twice in an equal volume of 1×PBS. The resulting parasite pellets were permeabilized by treatment in 20 μL of 1% Triton X-100 (in 1×PBS) for 5 min. Intraparasitic hemoglobin content was measured at 550 nm using a Nanodrop spectrophotometer, and folds increase in intra-parasite hemoglobin content was calculated relative to the E64-treated controls.

[6] = test system: Malaria parasites (ring-stage parasitized erythrocytes); assay: Drug-combination (drug-drug interaction) studies, SYBR-Green I; assay type: cell-based, Plasmodium falciparum
Method: In view of the overlapping modes of action between the hybrids and some known antimalarial drugs in terms of targeted cellular processes, we investigated the interaction between these compounds at variable combination ratios. Malaria parasites were continuously cultured and synchronized as earlier described prior to the assay.
Briefly, two-fold drug dilutions were prepared using a variable potency ratio drug combination approach, starting at 5EC50A: 0EC50B to 0EC50A: 5EC50B in serum-free medium, where A and B represent the different partner molecules.
The test was run for 72 h and terminated when the untreated parasites were at the early trophozoite stage of the second cycle. Parasite viability was assessed by the SYBR-Green I fluorescence-based assay as earlier described. Dose-response curves and EC50 values of each combination and drug alone were obtained using GraphPad Prism v.5.0 and Microsoft Excel was used to calculate mean EC50 values and the standard error of the mean.

[7] = test system: P. chabaudi-infected mice; assay: Peter's four-day suppressive test (chemosuppressive activity); assay type: in vivo, Swiss albino mice
Method: Following the encouraging in vitro antiplasmodial activities and cytotoxicity profiles reported above, as well as the ADMET properties of the primary and secondary hits identified in this study, studies were carried out to assess the in vivo efficacy of these compounds in laboratory mice. Chemosuppressive potentials were assessed using the Peter's four-day test whereas the ability of each compound to cure an established plasmodial infection was determined using the Rane's test. To assess the in vivo chemosuppressive potential of the compounds, groups of P. chabaudi-infected mice were treated by ip injection for 3 days following infection using fixed doses of 0.03, 0.3, 3, 10, or 30 mg/kg for each compound. The percent suppression of parasite growth in treated groups was calculated relative to the control group and the growth inhibition curves plotted.
Eight-week old male Swiss albino mice weighing approximately 23±3 g were housed in cages and maintained in a well-ventilated room under standard environmental conditions of temperature at 22-24° C., under a 12 h dark-light cycle, with food and water provided ad libitum.
The animals were allowed one week acclimation before commencement of the study. Three (3) mice were infected with stocked blood containing Plasmodium chabaudi parasites and used as donors. In brief, frozen blood containing the sulfadoxine/pyrimethamine resistant P. c. chabaudi (AS(50S/P) parasites was thawed and about 200 μL parasites were injected intra-peritoneally (i.p) into each of the three mice and parasitemia monitored through blood smear until a 20% threshold was reached. These infected animals then served as donors to the experimental animals. Ethical approval for the study was obtained from the University of Douala Institutional Review Board (N^oIEC-UD/1146/09/2017/A).
In vivo efficacies were conducted following a modification of the Peter's four-day suppressive test as previously described (Lee et al., 2014, Tarkang et al., 2014). Briefly, following parasite passage in donor mice, the mice were euthanized using diethyl ether and P. c. chabaudi infected blood was obtained by cardiac puncture and placed into heparinized tubes. The blood was then diluted with phosphate buffered saline (PBS) and immediately used to infect the experimental mice. Mice were randomly divided into seven (7) groups of 3 animals and each mouse was injected with 1×10^7 infected erythrocytes intraperitoneally (Day 0). The mice were kept for 24 hours to establish infection and Giemsa thin blood smears were prepared to quantify parasites (Day 1). Thereafter, groups 1, 2, 3, 4 and 5 were treated with compounds dissolved in 1×PBS, intraperitoneally at dosages of 30, 10, 3, 0.3 and 0.03 mg/kg body weight, respectively, while groups 6 and 7 were treated with vehicle or chloroquine at 10 mg/kg, respectively for three consecutive days (Day 1-Day 3). Twenty-four (24) and ninety-six (96) hours post-infection, thin blood smears were prepared from each animal with blood obtained from the tail vein, fixed in methanol and stained with 10% Giemsa.
Parasitemia was determined by light microscopy using a 100× objective lens and the following equation: […]
Average percentage chemosuppression was calculated as
Where A is mean parasitemia in negative control and B is mean parasitemia in test group

Compound: COc1cc2c(cc1OC)C1(NCC2)C(=O)Nc2ccc(Cl)cc21 (stereo not shown) [Compound 8b]
- dose-response curve within the tested drug concentration range ([1]; Pf 3D7, 0.078 μM to 10 μM): complete sigmoidal dose-response curve
- EC50 ([1]; Pf 3D7, 0.078 μM to 10 μM, listed as (±)-moxiquindole): 1.85 µM
- EC50 ([1]; Pf 3D7, 0.078 μM to 10 μM): < 2 µM
- parasite growth inhibition in primary assays ([1]; primary screening at 10 μM, Pf 3D7, 72 h): ~97%
- cross-resistance index [2]: 0.935
- EC50 ([2]; Pf Dd2): 1.73 µM
- EC50 ([2]; Pf Dd2, 0.078 μM to 10 μM): 1.73 µM
- CC50 ([3]; MTT): > 100 µM
- cell viability ([3]; up to 100 μM compound concentration, 48 h): no significant decrease in cell viability
- CC50 ([4]; SW872, MTT): > 100 µM
- cell viability ([4]; SW872, up to 100 μM compound concentration, 48 h): no significant decrease in cell viability
- intraparasitic hemoglobin content / accumulation [5]: significantly higher; also recorded: accumulation of intra-parasitic hemoglobin
- combination index (CI) ([6]; in combination with artemisinin): 1.440
- combination index (CI) ([6]; in combination with chloroquine): 1.478
- suppression of parasitemia ([7]; 3.0 mg/kg ip): 98%
- suppressive ED50 ([7]; ip, 3 days, P. chabaudi-infected mice): 0.25 mg/kg
